The values that follow come from ChEMBL document CHEMBL1201862, “PubChem BioAssay data set” (2004).

Molecules are shown by their SMILES.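 1) Cells in 96-well plates. 2) Compound, 48 h, 5 concentrations. 3) Linear interpolation between surrounding doses. 4) Unreached endpoint = highest concentration. The concentration for 50% growth inhibition is given as GI50.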 Calls of active or inactive are those of the source. No stated cut-off is given here; in the data, active = GI50 up to about 1.1 µM and inactive = higher.

Some test systems named below: UACC-62; OVCAR-8; SNB-19; NCI-H460; UO-31; HCT-15; 786-0; MDA-N; NCI-H226; MDA-MB-231; NCI-H522; Malme-3M; SNB-75; SF-295; SW-620; HOP-62; OVCAR-5; A549; SR.
Holding throughout (test): NCI-60 cell line screen, 48 h

Regarding `Oc1nc2c(c(-c3ccc(Br)cc3)n1)COC/C2=C\c1ccc(Br)cc1`, the GI50 with UACC-62 is > 50 µM (inactive); in the assay on OVCAR-8, > 50 µM (inactive); with SNB-19, > 50 µM (inactive); in the assay with NCI-H460, > 50 µM (inactive); with UO-31 it was > 50 µM (inactive); in the assay with HCT-15 it was above 50 µM. Besides, the GI50 with 786-0, in the assay on MDA-N, in the assay on NCI-H226, with MDA-MB-231, in the assay on NCI-H522 and with Malme-3M was > 50 µM (inactive) in each case. Moreover, the GI50 with SNB-75, in the assay with SF-295, in the assay on SW-620, in the assay with HOP-62 and in the assay on OVCAR-5 was > 50 µM (inactive) throughout.

For `COC1(OC)CC(CO)(CNc2nc(N)nc(Cl)c2C=O)C1`, the GI50 is 43 µM (inactive) in the assay with OVCAR-8; 43.8 µM (inactive) in the assay with SNB-19; 85.7 µM (inactive) with NCI-H460; 60.1 µM (inactive) in the assay with UO-31; 26 µM with HCT-15; > 100 µM (inactive) with 786-0. The GI50 is 59 µM (inactive) in the assay on A549; 20.1 µM (inactive) in the assay with SR; 93.3 µM (inactive) with NCI-H226; 20.8 µM (inactive) in the assay with MDA-MB-231; 1.99 µM (inactive) in the assay on NCI-H522; 81.7 µM (inactive) in the assay on Malme-3M. Also, the GI50 in the assay with SNB-75 is 90.4 µM (inactive); in the assay with SF-295, > 100 µM (inactive); with SW-620 it was 53.2 µM (inactive); in the assay with HOP-62, 42.5 µM (inactive); in the assay on OVCAR-5, > 100 µM (inactive).

In the case of `[N-]=[N+]=NI1OC(=O)c2ccccc21`, the GI50 in the assay on UACC-62 was > 100 µM (inactive); in the assay on OVCAR-8, > 100 µM (inactive); with SNB-19, > 100 µM (inactive); in the assay on UO-31, > 100 µM (inactive); with HCT-15 it was 50.7 µM; in the assay with 786-0, > 100 µM (inactive). The GI50 in the assay on A549 is > 100 µM (inactive); with SR it was 38.7 µM (inactive); with NCI-H226 it was > 100 µM (inactive); in the assay with MDA-MB-231, > 100 µM (inactive); in the assay with NCI-H522 it was 17.3 µM (inactive); with SNB-75, > 100 µM (inactive). The GI50 was > 100 µM (inactive) in the assay on SF-295, 65.3 µM (inactive) with SW-620, > 100 µM (inactive) in the assay on HOP-62 and 66.5 µM (inactive) in the assay on OVCAR-5.

As to `Cc1[nH]c2ccccc2c1C1Cc2ccccc2N1C(=O)C#Cc1ccc([N+](=O)[O-])cc1` (stereo not drawn), the GI50 in the assay with UACC-62 was > 100 µM (inactive); with OVCAR-8, > 100 µM (inactive); in the assay on SNB-19 it was > 100 µM (inactive); in the assay on NCI-H460, > 100 µM (inactive); with UO-31, 51.9 µM (inactive); in the assay with 786-0, > 100 µM (inactive). Also, the GI50 in the assay on A549 was > 100 µM (inactive); with SR, 8 µM (inactive); with NCI-H226 it was > 100 µM (inactive); with Malme-3M, > 100 µM (inactive); in the assay with SNB-75, > 100 µM (inactive); in the assay with SF-295 it was > 100 µM (inactive). Moreover, the GI50 with SW-620, in the assay with HOP-62 and in the assay with OVCAR-5 was > 100 µM (inactive) throughout.

`C=CCONC(=O)c1ccc(Cl)cc1`: the GI50 in the assay with UACC-62 is > 100 µM (inactive); with OVCAR-8 it was > 100 µM (inactive); in the assay with SNB-19, > 100 µM (inactive); in the assay on NCI-H460, > 100 µM (inactive); in the assay with UO-31, > 100 µM (inactive); in the assay on HCT-15, above 100 µM. The GI50 in the assay on 786-0 is > 100 µM (inactive); in the assay on A549, > 100 µM (inactive); in the assay with SR it was > 100 µM (inactive); in the assay on NCI-H522 it was > 100 µM (inactive); in the assay with Malme-3M, > 100 µM (inactive); in the assay on SNB-75, 84.1 µM (inactive). The GI50 with SF-295, with SW-620, in the assay with HOP-62 and in the assay with OVCAR-5 was > 100 µM (inactive) throughout.

As for `CC(C)C1OC23CCCCC2C(C#N)(C#N)C1(C#N)C(=N)O3` (stereo not drawn), the GI50 is 20.6 µM (inactive) in the assay with UACC-62; 20.2 µM (inactive) with OVCAR-8; 34.3 µM (inactive) in the assay with SNB-19; 4.73 µM (inactive) with NCI-H460; 32.7 µM (inactive) with UO-31; 9.46 µM in the assay on HCT-15. Besides, the GI50 was 14.2 µM (inactive) in the assay with 786-0; 71.8 µM (inactive) with A549; 15.8 µM (inactive) with MDA-N; 98.6 µM (inactive) with NCI-H226; 19.6 µM (inactive) with MDA-MB-231; 16.8 µM (inactive) with Malme-3M. The GI50 with SNB-75 is 28.4 µM (inactive); in the assay on SF-295 it was 49.9 µM (inactive); with SW-620 it was 13.7 µM (inactive); in the assay with OVCAR-5, 20.1 µM (inactive).

As for `O=c1ccc2c(Cl)sc(Cl)c2[nH]1`, the GI50 was > 100 µM (inactive) in the assay on UACC-62; > 100 µM (inactive) with OVCAR-8; > 100 µM (inactive) with SNB-19; > 100 µM (inactive) in the assay with NCI-H460; > 100 µM (inactive) in the assay with UO-31; above 100 µM in the assay on HCT-15. The GI50 in the assay on 786-0 was > 100 µM (inactive); with A549, > 100 µM (inactive); in the assay on MDA-N, > 100 µM (inactive); in the assay with MDA-MB-231, > 100 µM (inactive); with NCI-H522, 92.9 µM (inactive); with Malme-3M, 43.8 µM (inactive). For the same compound, the GI50 in the assay with SNB-75, with SF-295, in the assay with SW-620, in the assay with HOP-62 and with OVCAR-5 was > 100 µM (inactive) in each case.

Take `c1c[nH]c(-c2ccc(-c3ccc[nH]3)c3nsnc23)c1`: the GI50 is > 47.5 µM (inactive) in the assay on UACC-62; > 43.7 µM (inactive) in the assay on OVCAR-8; > 67.6 µM (inactive) in the assay with SNB-19; 17.3 µM (inactive) with NCI-H460; > 48.1 µM (inactive) in the assay with UO-31; 0.245 µM in the assay with HCT-15. Besides, the GI50 in the assay on 786-0 was > 39.1 µM (inactive); in the assay on A549, > 47.5 µM (inactive); in the assay with MDA-N, > 70.1 µM (inactive); with NCI-H226 it was > 100 µM (inactive); in the assay on NCI-H522, 53.6 µM (inactive); in the assay on SNB-75, 2.65 µM (inactive). The GI50 in the assay with SF-295 is > 58.1 µM (inactive); with SW-620 it was > 52.4 µM (inactive); in the assay on HOP-62, 28.5 µM (inactive); in the assay with OVCAR-5, 1.14 µM (inactive).

With `O=C(O)CNc1ccc(Cl)c(Cl)c1`, the GI50 in the assay with UACC-62 was 28.1 µM (inactive); with OVCAR-8, 29 µM (inactive); in the assay with SNB-19, 34.5 µM (inactive); in the assay with NCI-H460 it was 23.6 µM (inactive); in the assay with UO-31, 24.9 µM (inactive); in the assay on HCT-15 it was 8.83 µM. In addition, the GI50 was 24.7 µM (inactive) with 786-0; 32.1 µM (inactive) in the assay on A549; 23.7 µM (inactive) with MDA-N; 27.5 µM (inactive) in the assay on NCI-H226; 45.3 µM (inactive) with MDA-MB-231; 16.3 µM (inactive) with NCI-H522. For the same compound, the GI50 in the assay on SNB-75 was 26.6 µM (inactive); with SF-295, 24.6 µM (inactive); with SW-620, 23.9 µM (inactive); in the assay with HOP-62, 24 µM (inactive); in the assay with OVCAR-5, 40.9 µM (inactive).

On to `C=C(CCC=C(C)C)C1CC=C(C)CC1` (stereo not drawn), for which the GI50 was 36.9 µM (inactive) in the assay on UACC-62; 36 µM (inactive) in the assay on OVCAR-8; > 100 µM (inactive) with SNB-19; 19.3 µM (inactive) in the assay with NCI-H460; 16.4 µM (inactive) in the assay with UO-31; 18.2 µM with HCT-15. In addition, the GI50 in the assay on 786-0 was 17.1 µM (inactive); with A549, 19.5 µM (inactive); in the assay with MDA-N, 18.5 µM (inactive); with NCI-H226, > 100 µM (inactive); with MDA-MB-231, 30.6 µM (inactive); with NCI-H522 it was 16.4 µM (inactive). Besides, the GI50 was > 100 µM (inactive) in the assay with Malme-3M; 19.9 µM (inactive) with SF-295; 22.9 µM (inactive) in the assay on SW-620; 16.3 µM (inactive) with HOP-62; > 100 µM (inactive) in the assay with OVCAR-5.

Regarding `O=C1c2ccsc2-c2cccc3cccc1c23.O=C1c2sccc2-c2cccc3cccc1c23`, the GI50 with UACC-62 was 4.15 µM (inactive); in the assay with OVCAR-8, 4.94 µM (inactive); in the assay on SNB-19, 2.93 µM (inactive); in the assay with NCI-H460, 4.94 µM (inactive); in the assay on UO-31, 4.67 µM (inactive); in the assay with HCT-15, 3.18 µM. For the same compound, the GI50 is 5.89 µM (inactive) in the assay on 786-0; 3.32 µM (inactive) with A549; 0.203 µM (active) in the assay with SR; 2.03 µM (inactive) in the assay with NCI-H226; 4.35 µM (inactive) with MDA-MB-231; 5.21 µM (inactive) in the assay with NCI-H522. Further, the GI50 is 0.353 µM (active) in the assay on Malme-3M; 3.27 µM (inactive) in the assay with SNB-75; 8.79 µM (inactive) in the assay on SF-295; 3.27 µM (inactive) with SW-620; 2.67 µM (inactive) in the assay on HOP-62; 1.71 µM (inactive) with OVCAR-5.

For the compound `CCCCCCCCC#CCCCCCCC(F)C(=O)O` (stereo not drawn), the GI50 in the assay on OVCAR-8 is > 100 µM (inactive); in the assay on SNB-19, > 100 µM (inactive); in the assay on NCI-H460, > 100 µM (inactive); in the assay on UO-31, > 100 µM (inactive); with HCT-15, above 100 µM; in the assay on 786-0 it was > 100 µM (inactive). Further, the GI50 in the assay on A549, with SR, in the assay on NCI-H226, in the assay with NCI-H522, in the assay on Malme-3M and in the assay with SNB-75 was > 100 µM (inactive) throughout. Further, the GI50 in the assay with SF-295, in the assay on SW-620, in the assay with HOP-62 and in the assay on OVCAR-5 was > 100 µM (inactive) throughout.
